Measured values reported in patent US20220404341A1, “METHODS AND APPARATUS FOR MEASURING IMMUNE MEDIATED TUMOROID RESPONSES” (VITROSCAN B.V., priority 2019, published 2022).

What was measured:
Type in all cases: cell-based, human
[1] = test system: ovarian cancer tumoroids; experiment: ex vivo 3D patient derived tumour culture with 3D imaging, ovarian cancer samples; details: for area size of small objects: FIG. 5 (same sample as FIG. 4)
[2] = test system: patient derived tumour cultures; experiment: Selection Factor (tumoroids' area decrease) across patient samples; details: for immune reaction reducing the number of tumour cells (Selection Factor metric across samples): FIGS. 8 and 9, alone or in combination, naïve patient sample; for Tumoroids' area decrease (%) as Selection Factor, effect when used alone: experiments shown in FIG. 8
[3] = test system: Mesothelioma tumour sample; experiment: ex vivo 3D patient derived tumour culture with 3D imaging, mesothelioma sample; details: FIG. 3
[4] = test system: lung tumour sample; experiment: ex vivo 3D patient derived tumour culture with 3D imaging, lung tumour sample; details: FIG. 6
[5] = test system: IFN-γ; experiment: IFN-γ production in treated patient derived tumour cultures; details: FIG. 7; IFN-γ is secreted by activated T-cells

Row | Molecule | area size of small objects ([1]; ovarian tumour sample) | immune reaction reducing the number of tumour cells (Selection Factor metric across samples) [2] | activating native immune cells to kill tumoroids (total area of objects larger than 422 μm^2 and of objects smaller than 160 μm^2) ([1]; ovarian cancer samples of FIG. 1, one-sided Wilcoxon test) | activating native immune cells to kill tumoroids ([1]; ovarian cancer samples of FIG. 2) | immune-mediated tumoroid killing effect [3] | immune-mediated tumoroid killing effect [4] | IFN-γ production [5] | Tumoroids' area decrease (%) as Selection Factor, effect when used alone [2] | immune-mediated tumoroid killing effect (area size reduction of tumoroid clusters) ([1]; ovarian tumour sample, FIG. 4)
1 | Nc1ncnc2c1ncn2[C@@H]1O[C@@H]2COP(=O)([S-])O[C@@H]3[C@H](O)[C@@H](COP([O-])(=S)O[C@H]2[C@H]1O)O[C@H]3n1cnc2c(N)ncnc21.[Na+].[Na+] (stereo partly shown) [ADU-S100] | area size increase of small objects |  |  |  |  |  |  |  | 
2 | O=C(c1cc(Cc2n[nH]c(=O)c3ccccc23)ccc1F)N1CCN(C(=O)C2CC2)CC1 [olaparib] |  | able to start an immune reaction that effectively reduced the number of tumour cells |  |  |  |  |  |  | 
3 | ipilimumab |  | able to start an immune reaction that effectively reduced the number of tumour cells | effective in activating native immune cells to kill ovarian cancer tumoroids | does not show effectiveness in activating native immune cells to kill tumoroids | immune-mediated tumoroid killing effect | immune-mediated tumoroid killing effect | increased |  | 
4 | nivolumab |  | able to start an immune reaction that effectively reduced the number of tumour cells |  |  |  | immune-mediated tumoroid killing effect |  | do not show any effect when used alone | 
5 | pembrolizumab | area size increase of small objects | able to start an immune reaction that effectively reduced the number of tumour cells |  |  |  | immune-mediated tumoroid killing effect |  | do not show any effect when used alone | immune-mediated tumoroid killing effect
